Residues, ends and D or L forms follow the SMILES beside them. *: point of attachment. FITC = O=C1OC2(c3ccc(O)cc3Oc3cc(O)ccc32)c2ccc(NC(=S)*)cc21
Columns and labels:
[1] = tested on: differentiated iBAT‐SVF cells; assay: Relative mRNA and protein levels in differentiated iBAT-SVF cells; format: cell-based, C57BL/6 mice; details: GPCBi 5 µM
Procedure: Interscapular BAT‐SVF cells were obtained from eight‐week‐old male C57BL/6 mice. […] The tissue homogenates were filtered through a 70 µm cell strainer and centrifuged at 1000 rpm for 5 min. The cell pellet was resuspended in DMEM supplemented with 10% FBS (Sigma–Aldrich) and 1% penicillin/streptomycin (P/S) at 37 °C with 5% CO2. The next day, BAT‐SVF cells were immortalized with the SV40 large T antigen according to a published protocol.^[ [32] ^] […] After 48 h, the induction medium was replaced with a maintenance cocktail (5 µg mL^−1 insulin, 1 nM triiodo‐L‐thyronine, and 1 µM rosiglitazone) until 6 to 8 days after the induction of differentiation.
Reverse transcription of cDNA was completed via the use of 1 µg of RNA with HiScript II Q RT SuperMix for real‐time quantitative PCR (qPCR) (Vazyme Biotech, Nanjing, China, Cat# R222) according to the provided protocols. qPCR was performed with a real‐time PCR system on a QuantStudio1 (Applied Biosystems) using Taq Pro Universal SYBR qPCR Master Mix (Vazyme Biotech., Nanjing, China, Cat# Q712‐02). Relative transcript levels were calculated via the comparative C T method; 36b4 was used as the internal control for cells, whereas Hprt was used as the internal control for tissues. The primer sequences are listed in Table S1 (Supporting Information). The mRNAs from the BAT of control and Gabpα ^Ucp1 KO mice were extracted and subjected to commercial RNA‐seq (BGI Genomics Co., Ltd.) for further DEG and KEGG pathway enrichment analysis. In detail, RNA quality was examined with Fragment (Agilent). High‐quality RNA (RIN > 8.0) was used to library construction. RNA‐seq was performed at BGI Genomics (China) using the Illumina NovaSeq 6000 platform. Clean reads were aligned to the mouse reference genome (GRCm39) using Bowtie2, and transcript quantification was performed with RSEM. […] The RNA‐seq data generated in this study have been deposited in the National Center for Biotechnology Information Sequence Read Archive database under accession code PRJNA1358056.
Cells and tissues were lysed in RIPA lysis buffer (Beyotime, Shanghai, China, Cat# P0013B) containing a protease inhibitor cocktail (MedChem Express, NJ, USA, Cat# HY‐K0010) according to the manufacturer's protocol. Equal amounts of protein were separated on SDS‒PAGE gels and transferred to PVDF membranes (Millipore). The PVDF membranes were blocked in 5% skim milk for 1 h at room temperature and then incubated with primary antibody overnight at 4 °C. The membranes were washed three times with TBST and then incubated with HRP‐conjugated secondary antibodies for 1 h at room temperature. After washing three times, the Western blots were imaged via an enhanced chemiluminescence system.

wild‐type mice [2] = assay: BAT mass, body weight, tissue mass and morphology of mice after BAT injection of peptide; format: in vivo, wild‐type C57BL/6J mice; details: GPCBi 5.5 mg kg^−1 orthotopically into BAT
Procedure: (§1) The mouse experiments were approved by the Institutional Animal Care and Use Committee of the Institute of Model Animals of Tongji Hospital, Huazhong University of Science and Technology, and were performed in compliance with all relevant ethical regulations (approval number: TJH‐202110044). Unless otherwise noted, the mice were housed in a pathogen‐free and climate‐controlled environment (22–25 °C, 40‐60% humidity) and were given free access to food and water on a 12 h light/dark cycle. Wild‐type C57BL/6J mice were obtained from Beijing Huafukang Bioscience Co., Ltd. (Beijing, China). Gabpa ^flox/flox , Adipoq^Cre , and Ucp1^Cre mice were purchased from Cyagen Biosciences, Inc. (Guangzhou, China). For GPCBi treatment, wild‐type mice were orthotopically injected GPCBi (FITC‐[…]; 5.5 mg kg^−1) or scramble peptide (FITC‐[…]; 5.5 mg kg^−1) into the BAT at room temperature for one week. […] For cold exposure, the mice were caged individually and exposed to a temperature of 10 or 4 °C. The mice were euthanized by CO2 inhalation. For studies with specific diets, five‐week‐old male Gabpα ^Adipo KI mice and their respective littermate control mice were fed a HFD (D12492, Research Diets; 60 kcal% fat, 20 kcal% carbohydrates, and 20 kcal% protein; Medicience Ltd., Jiangsu, China) at ambient temperature. The food was changed every week. Body weight was measured every week, and tissue weights were measured at the time of euthanasia.

BAT from wild‐type mice = assay: H&E staining and Ucp1 immunostaining of BAT; format: in vivo, wild‐type C57BL/6J mice; details: GPCBi 5.5 mg kg^−1 orthotopically into BAT
Procedure: as §1
For haematoxylin and eosin (H&E) staining, adipose tissues and the liver were fixed in 4% paraformaldehyde overnight at 4 °C and then dehydrated in 70% ethanol. The tissues were subsequently embedded in paraffin, sectioned at a thickness of 5 µm, and stained with H&E or immunostained with a Ucp1 antibody (Abcam, UK, Cat# ab234430, 1:500 dilution) following the standard protocol. For Oil Red O staining, frozen liver sections were stained with Oil Red O solution for 10 min and then counterstained with haematoxylin for 20 s. Images of the tissue samples were captured via an Olympus BX53 Orthomicroscope. […]

wild‐type mice [3] = assay: Fasting blood glucose; format: in vivo, wild‐type C57BL/6J mice; details: GPCBi 5.5 mg kg^−1 orthotopically into BAT; n = 5 (Figure S4h)
Procedure: as §1, with “For studies with specific diets, five‐week‐old male Gabpα ^Adipo KI mice and their respective littermate control mice were fed a HFD (D12492, Research Diets; 60 kcal% fat, 20 kcal% carbohydrates, and 20 kcal% protein; Medicience Ltd., Jiangsu, China) at ambient temperature. The food was changed every week.” left out

wild‐type mice [4] = assay: Cold challenge: rectal core body temperature and survival; format: in vivo, wild‐type C57BL/6J mice; details: 4 °C
Procedure: as §1, with “For studies with specific diets, five‐week‐old male Gabpα ^Adipo KI mice and their respective littermate control mice were fed a HFD (D12492, Research Diets; 60 kcal% fat, 20 kcal% carbohydrates, and 20 kcal% protein; Medicience Ltd., Jiangsu, China) at ambient temperature. The food was changed every week.” left out

wild‐type mice [5] = assay: Lactate levels in BAT and serum; format: in vivo, wild‐type C57BL/6J mice; details: GPCBi 5.5 mg kg^−1 in BAT, 23 °C for 7 days then 10 °C for 2 days
Procedure: as §1, with “For studies with specific diets, five‐week‐old male Gabpα ^Adipo KI mice and their respective littermate control mice were fed a HFD (D12492, Research Diets; 60 kcal% fat, 20 kcal% carbohydrates, and 20 kcal% protein; Medicience Ltd., Jiangsu, China) at ambient temperature. The food was changed every week.” left out, “euthanasia. […]” for “euthanasia.”

CC[C@H](C)[C@H](NC(=O)[C@H](CCCNC(=N)N)NC(=O)[C@H](CS)NC(=O)[C@H](CC(N)=O)NC(=O)[C@H](CC(C)C)NC(=O)[C@H](CC(=O)O)NC(=O)[C@H](CS)NC(=O)[C@H](CCCNC(=N)N)NC(=O)[C@H](CC(=O)O)NC(=O)[C@H](Cc1ccc(O)cc1)NC(=O)[C@@H](NC(=O)[C@H](CC(C)C)NC(=O)[C@H](CCCCN)NC(=O)[C@H](CC(C)C)NC(=O)[C@H](CCCNC(=N)N)NC(=O)[C@@H](NC(=O)[C@@H](NC(=O)[C@H](CCCNC(=N)N)NC(=O)[C@H](CCCNC(=N)N)NC(=O)[C@H](CCCNC(=N)N)NC(=O)[C@H](CCCNC(=N)N)NC(=O)[C@H](CCCNC(=N)N)NC(=O)[C@H](CCC(N)=O)NC(=O)[C@H](CCCNC(=N)N)NC(=O)[C@H](CCCNC(=N)N)NC(=O)[C@H](CCCCN)NC(=O)[C@H](CCCCN)NC(=O)[C@H](CCCNC(=N)N)NC(=O)CNC(=O)[C@H](Cc1ccc(O)cc1)NC(=S)Nc1ccc2c(c1)C(=O)OC21c2ccc(O)cc2Oc2cc(O)ccc21)[C@@H](C)O)[C@@H](C)CC)[C@@H](C)CC)C(=O)N[C@@H](Cc1c[nH]cn1)C(=O)N[C@@H](CCCCN)C(=O)N[C@@H](CCCCN)C(=O)N[C@@H](CO)C(=O)N[C@@H](CCCNC(=N)N)C(=O)N[C@@H](CC(N)=O)C(=O)N[C@@H](CCCCN)C(=O)O [GPCBi] ({FITC}-YGRKKRRQRRRRRTIRLKLIYDRCDLNCRIHKKSRNK-OH; N-terminus and C-terminus assumed)
expression of glycolytic and thermogenic genes ([1]; first 2 days of adipogenic differentiation (Figure 4e,f), mRNA n = 3): decreased the expression of glycolytic and thermogenic genes
expression of adipogenic gene Adipoq ([1]; first 2 days of adipogenic differentiation (Figure 4e,f), n = 3): did not change
expression of Ldh and Ucp1 in brown adipocytes ([1]; first 2 days of adipogenic differentiation (Figure 5m)): lower expression
regulatory gene expression of the futile lipid cycle, differentiated iBAT‐SVF cells ([1]; first 2 days of adipogenic differentiation (Figure S5c)): substantially impaired
thermogenic gene ucp1 in GPCBi‐treated brown adipocytes ([1]; first 2 days of adipogenic differentiation, without Enoblock (Figure 5p)): downregulated
BAT morphology (wild‐type mice [2]; one week (Figure S4f)): morphological changes
body weight or the morphology or tissue mass of IngWAT, EpiWAT, or the liver (wild‐type mice [2]; one week, n = 4 (Figure S4e-g)): no significant changes
BAT mass (wild‐type mice [2]; room temperature, one week, versus scramble peptide, n = 4 (Figure S4g)): reduced BAT mass
lipid accumulation in BAT (BAT from wild‐type mice; H&E, 7 days (Figure 4i,j)): increased lipid accumulation
Ucp1 abundance in BAT (BAT from wild‐type mice; Ucp1 immunostaining, 7 days (Figure 4i,k)): decreased Ucp1 abundance
fasting blood glucose levels (wild‐type mice [3]): markedly increased
maintenance of core body temperature under acute cold stress (wild‐type mice [4]; control n = 7, GPCBi n = 8 (Figure 4q)): struggled to maintain their core body temperatures
mortality under acute cold stress (wild‐type mice [4]; control n = 7, GPCBi n = 8 (Figure 4r)): increased mortality
production of lactate in brown fat (wild‐type mice [5]; n = 3 (Figure 5c)): substantially suppressed
lactate in circulation (serum) (wild‐type mice [5]; n = 3 (Figure 5d)): substantially suppressed

— paper PMC12884720, “Gabpα‐Pparγ Complex Determines Glycolytic Capacity and Lactic Acid Homeostasis in Brown Fat” (Advanced Science, 2025)
